According to US20240279232A1, “USE OF SUBSTITUTED 5-(4-METHYL-6-PHENYL-4H-BENZO[F]IMIDAZO[1,5-A][1,4] DIAZEPIN-3-YL)-1,2,4-O[…] THE TREATMENT OF INFLAMMATORY CONDITIONS” (priority 2021, published 2024):

How the values were obtained:
[1] = test system: iNOS mRNA; experiment: iNOS RT-qPCR in activated microglia; assay type: cell-based, mouse; conditions: 10 μM
Description: Mouse microglia were activated with IFNγ/LPS and treated with vehicle or 10 μM GL-IV-03. mRNA was isolated after 15 min, 1 h, 3 h and 6 h and iNOS was quantified using RT-qPCR. Cycle numbers for each sample were normalized to GAPDH using the ΔCt method (n=3). Mouse microglia were activated with IFNγ/LPS and treated with vehicle or 10 μM GL-IV-03 for 24 h. Cellular protein was extracted and analyzed with the mouse iNOS ELISA kit from Abcam (n=3). *, (p<0.05), ** (p<0.01) or *** (p<0.001) significance was calculate with ANOVA.
iNOS RT-qPCR. 1×10^6 mouse microglia cells were plated in 6 well plates (VWR, 10062-892) in 1-2 mL of media, activated with 50 ng/ml LPS (Invivogen, NC9836) and 150 U/mL IFNγ (R&D Systems, 485MI100), and treated with compounds of interest. […] Plates were incubated for stated times at 37° C. and 5% CO2. mRNA was collected using QIAshredder (Qiagen, 79654) and RNeasy Mini Kit (Qiagen, 74104). mRNA was analyzed using the QuantiFast SYBR Green RT-PCR kit (Qiagen, 204154) along with iNOS primers (F. 5′-ACATCAGGTCGGCCATCACT-3′, R: 5′-CGTACCGGATGAGCTGTGAAT-3′). Expected product size was 87 bp. Data were acquired using an Eppendorf Mastercycler Pro and analyzed by the Delta Ct method. Each measurement was carried out in triplicate and significance analyzed by ANOVA. […]

[2] = molecular target: D4 (Homo sapiens, UniProt P21917); experiment: PDSP primary binding D4; conditions: PDSP primary screening
Description: (§1) Because reduction of NO could not be reversed by GABAAR antagonists, the possible binding of MP-IV-010 to other cellular receptors was evaluated in collaboration with the NIMH Psychoactive Drug Screening Program.
(§2) Psychoactive Drug Screening Program. Detailed protocols for the primary and secondary radioligand binding assays can be found in the National Institute of Mental Health's Psychoactive Drug Screening Program (NIMH PDSP) Assay Protocol Book. Briefly, primary and secondary radioligand binding assays are carried out in a final of volume of 125 μL per well in appropriate binding buffer. The radioactive ligand concentration is close to the Kd. Total binding and nonspecific binding are determined in the absence and presence of 10 μM of appropriate reference compound, respectively. In brief, plates are usually incubated at room temperature and in the dark for 90 min. Reactions are stopped by vacuum filtration onto 0.3% polyethyleneimine (PEI) soaked 96-well filter mats using a 96-well Filtermate harvester, followed by three washes with cold PBS buffer. Scintillation cocktail is then melted onto the microwave-dried filters on a hot plate and radioactivity counted in a Microbeta counter. The data (n=6) were analyzed by nonlinear regression.

[3] = molecular target: H1 (Homo sapiens, UniProt P35367); experiment: PDSP primary binding H1; conditions: PDSP primary screening
Description: as §1, §2

[4] = molecular target: PBR (Rattus norvegicus, UniProt P16257); experiment: PDSP primary binding PBR; conditions: PDSP primary screening
Description: as §1, §2

[5] = molecular target: H3 (Homo sapiens, UniProt Q9Y5N1); experiment: PDSP primary binding H3; conditions: PDSP primary screening
Description: as §1, §2

[6] = test system: Calcium Channel; experiment: PDSP primary binding Calcium Channel; conditions: PDSP primary screening
Description: as §1, §2

[7] = test system: GABAA; experiment: PDSP primary binding GABAA; conditions: PDSP primary screening
Description: as §1, §2

[8] = molecular target: 5-HT3 (Homo sapiens, UniProt P46098); experiment: PDSP primary binding 5-HT3; conditions: PDSP primary screening
Description: as §1, §2

[9] = molecular target: α3β3γ2 GABAAR (Homo sapiens, UniProt P18507+P34903); experiment: Membrane potential red dye assay; assay type: cell-based
Description: To determine the affinity of MP-IV-010 for these receptors, concentration dependent assays were carried out as depicted in FIG. 4A-4C.

[10] = molecular target: M5 (Homo sapiens, UniProt P08912); experiment: PDSP primary binding M5; conditions: PDSP primary screening
Description: as §1, §2

[11] = molecular target: D1 (Homo sapiens, UniProt P21728); experiment: PDSP primary binding D1; conditions: PDSP primary screening
Description: as §1, §2

[12] = molecular target: NET (Homo sapiens, UniProt P23975); experiment: PDSP primary binding NET; conditions: PDSP primary screening
Description: as §1, §2

[13] = molecular target: M3 (Homo sapiens, UniProt P20309); experiment: PDSP primary binding M3; conditions: PDSP primary screening
Description: as §1, §2

[14] = molecular target: Alpha2C (Homo sapiens, UniProt P18825); experiment: PDSP primary binding Alpha2C; conditions: PDSP primary screening
Description: as §1, §2

[15] = molecular target: T1, iNOS (Mus musculus, UniProt P29477); experiment: iNOS activity of extracts of activated microglia incubated with compound; assay type: biochemical; conditions: 50 μM, extracts incubated 2 h
T1 construct: endogenous in cells
Description: Cellular proteins were isolated from mouse microglia and mouse microglia activated for 24 hours with IFNγ/LPS. Cellular proteins from activated microglia were treated for 2 hours with 50 μM MP-IV-010 and iNOS activity was determined for all protein extracts with an Abcam INOS Activity Assay kit (n=3).
Next, the possible involvement of INOS in MP-IV-010 (and structurally similar compound GL-IV-03) mediated reduction of NO in activated microglia was investigated. INOS activity was measured in activated microglia after a 24-hour treatment with MP-IV-010. Second, proteins were harvested from microglia activated for 24 hours with LPS/INFγ, followed by a 2-hour treatment with MP-IV-010 before measuring iNOS activity. Finally, mRNA and protein levels were quantified for GL-IV-03 treated activated microglia to examine the transcriptional regulation of iNOS.
iNOS activity assay. Mouse microglia were activated with 50 ng/mL LPS (Invivogen, NC9836) and 150 U/mL IFNγ (R&D Systems, 485MI100), and treated with compounds of interest in 6 well plates for 2 or 24 hours. […] Protein was collected, quantified, and analyzed with the Nitric Oxide Synthase Activity kit (Abcam, ab211083) with minor alterations to the established protocol. […] Absorbance at 540 nm was measured using a TECAN Infinite M1000 plate reader. Significance (n=3) was analyzed by ANOVA.

[16] = molecular target: D5 (Homo sapiens, UniProt P21918); experiment: PDSP primary binding D5; conditions: PDSP primary screening
Description: as §1, §2

[17] = molecular target: M2 (Homo sapiens, UniProt P08172); experiment: PDSP primary binding M2; conditions: PDSP primary screening
Description: as §1, §2

Row | Structure (SMILES) | iNOS mRNA levels ([1]; 15, 60, and 180 minutes) | iNOS mRNA levels ([1]; after 6 h) | Percent Competition D4 [2] [%] | Percent Competition H1 [3] [%] | Percent Competition PBR [4] [%] | Percent Competition H3 [5] [%] | Percent Competition Calcium Channel [6] [%] | Percent Competition GABAA [7] [%] | Percent Competition 5-HT3 [8] [%] | EC50 [9] [µM] | Percent Competition M5 [10] [%] | Percent Competition D1 [11] [%] | Percent Competition NET [12] [%] | Percent Competition M3 [13] [%] | Percent Competition Alpha2C [14] [%] | iNOS activity of cellular extracts (direct inhibition) [15] | Percent Competition D5 [16] [%] | Percent Competition M2 [17] [%]
1 | CCc1noc(-c2ncn3c2[C@@H](C)N=C(c2ccccc2F)c2cc(C4CC4)ccc2-3)n1 [GL-IV-03, (R)-5-(8-Cyclopropyl-6-(2-fluorophenyl)-4-methyl-4H-benzo[f]imidazo[1,5-a][1,4]diazepin-3-yl)-3-ethyl-1,2,4-oxadiazole] | reduced | increased |  |  |  |  |  |  |  |  |  |  |  |  |  |  |  | 
2 | C#Cc1ccc2c(c1)C(c1ccccc1F)=N[C@H](C)c1c(-c3nc(C(C)C)no3)ncn1-2 [MP-IV-010, (R)-5-(8-ethynyl-6-(2-fluorophenyl)-4-methyl-4H-benzo[f]imidazo[1,5-a][1,4]diazepin-3-yl)-3-isopropyl-1,2,4-oxadiazole] |  |  | 5 | 19 | 28 | −18 | 15 | −8 | 13 | 14.3 | 26 | 28 | −2 | 0 | 31 | did not differ from the vehicle treated cell extract | 29 | 10
